This note sets out measurements from ChEMBL document CHEMBL1201862, “PubChem BioAssay data set” (2004).

Among the test systems are ACHN; BT-549; HCC 2998; HCT-15; HT-29; IGROV-1; LOX IMVI; MDA-N; Malme-3M; NCI-H460; NCI-H522; NCI/ADR-RES; OVCAR-8; RXF 393; SK-MEL-28; SK-MEL-2; SNB-75; TK-10; UACC-62; UO-31.
Holding throughout (assay): growth of human tumour cells (NCI), 48 h

The structures appear in SMILES notation.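 Briefly, cells in 96-well plates were exposed to five compound concentrations for 48 h, and endpoints were estimated by linear interpolation. Here, GI50 denotes the concentration required for 50% inhibition of growth.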 Activity calls are given as the source filed them. Cut-off read from the data, not from the text of the source: active = GI50 up to about 1.1 µM and inactive = higher.

As for `C=C1CC2(CC(c3ccccc3C)OC(c3ccccc3C)C2)OC1=O` (stereo not given), the GI50 in the assay with ACHN is 2.36 µM (inactive); with BT-549 it was 1.92 µM (inactive); in the assay with HCC 2998, 2.25 µM (inactive); with HCT-15 it was 1.95 µM; in the assay with HT-29, 1.82 µM (inactive); in the assay on IGROV-1 it was 1.69 µM (inactive). The GI50 in the assay with LOX IMVI is 1.58 µM (inactive); in the assay on MDA-N it was 1.75 µM (inactive); with Malme-3M, 1.71 µM (inactive); in the assay on NCI-H460 it was 2.96 µM (inactive); in the assay on NCI-H522, 1.73 µM (inactive); with NCI/ADR-RES, 3.48 µM (inactive). For the same compound, the GI50 with OVCAR-8 is 2.19 µM (inactive); in the assay with RXF 393, 2.29 µM (inactive); with SK-MEL-28, 1.82 µM (inactive); with SK-MEL-2, 2 µM (inactive); in the assay with SNB-75, 3.23 µM (inactive); in the assay with TK-10, 1.74 µM (inactive). The results for the GI50 in the assay on UACC-62 and in the assay with UO-31 were 1.54 µM (inactive) and 4.08 µM (inactive), respectively.

Regarding `CCCCn1c(O)nc2c(N)ncnc21`, the GI50 is > 100 µM (inactive) in the assay on ACHN; > 100 µM (inactive) in the assay on BT-549; > 100 µM (inactive) in the assay on HCC 2998; over 100 µM in the assay with HCT-15; > 100 µM (inactive) in the assay with HT-29; > 100 µM (inactive) in the assay with IGROV-1. Also, the GI50 in the assay with LOX IMVI, with MDA-N, with Malme-3M, in the assay with NCI-H460, with NCI-H522 and in the assay on NCI/ADR-RES was > 100 µM (inactive) each time. Moreover, the GI50 in the assay on OVCAR-8, in the assay on RXF 393, in the assay with SK-MEL-28, in the assay on SK-MEL-2, with SNB-75 and in the assay with TK-10 was > 100 µM (inactive) in each case. For the same compound, the GI50 with UACC-62 and in the assay with UO-31 was > 100 µM (inactive) in each case.

On to `Clc1ccc(-c2nnc(-c3cccc4ccccc34)o2)cc1Cl`, for which the GI50 in the assay with ACHN was > 100 µM (inactive); in the assay on BT-549, > 100 µM (inactive); in the assay with HCC 2998, > 100 µM (inactive); in the assay on HCT-15 it was over 100 µM; in the assay with HT-29, > 100 µM (inactive); in the assay with IGROV-1 it was 4.93 µM (inactive). In addition, the GI50 in the assay with LOX IMVI, with MDA-N, in the assay with Malme-3M, in the assay on NCI-H460, in the assay on NCI-H522 and in the assay on NCI/ADR-RES was > 100 µM (inactive) each time. In addition, the GI50 in the assay with OVCAR-8, with RXF 393, in the assay on SK-MEL-28, in the assay on SK-MEL-2, in the assay on SNB-75 and in the assay with TK-10 was > 100 µM (inactive) in each case. Moreover, the GI50 in the assay with UACC-62 and in the assay on UO-31 was > 100 µM (inactive) each time.

Take `FC(F)(F)c1ccc2c(-c3cc[nH]c3)ccnc2c1`: the GI50 in the assay on ACHN was 31.8 µM (inactive); with BT-549 it was 22.6 µM (inactive); in the assay with HCC 2998, > 100 µM (inactive); in the assay on HCT-15 it was over 100 µM; in the assay with HT-29 it was 21.4 µM (inactive); in the assay on IGROV-1 it was 39.5 µM (inactive). Further, the GI50 in the assay with LOX IMVI was 19.4 µM (inactive); in the assay with MDA-N, 32.3 µM (inactive); in the assay with Malme-3M it was 24.5 µM (inactive); in the assay with NCI-H460 it was 33.7 µM (inactive); with NCI-H522, 32.4 µM (inactive); with NCI/ADR-RES, 37.1 µM (inactive). Moreover, the GI50 in the assay with OVCAR-8 was 34.1 µM (inactive); in the assay on RXF 393, 22.5 µM (inactive); in the assay with SK-MEL-28, 35.6 µM (inactive); in the assay with SK-MEL-2 it was > 100 µM (inactive); in the assay on SNB-75, 14.4 µM (inactive); in the assay on TK-10, 28.6 µM (inactive). The GI50 is > 100 µM (inactive) in the assay on UACC-62 and 20.9 µM (inactive) in the assay on UO-31.

For the compound `O=C1OC(c2ccccc2)=N/C1=C\c1ccc(N(CCCl)CCCl)cc1`, the GI50 in the assay with ACHN was > 62.5 µM (inactive); with BT-549, > 100 µM (inactive); in the assay on HCC 2998 it was > 100 µM (inactive); in the assay on HCT-15, over 100 µM; with HT-29, > 100 µM (inactive); with IGROV-1 it was > 100 µM (inactive). The GI50 is > 91.4 µM (inactive) in the assay with LOX IMVI; > 100 µM (inactive) in the assay on MDA-N; > 100 µM (inactive) with Malme-3M; > 77.4 µM (inactive) in the assay on NCI-H460; 21.3 µM (inactive) in the assay with NCI-H522; > 85.1 µM (inactive) in the assay on NCI/ADR-RES. The GI50 in the assay with OVCAR-8 was > 100 µM (inactive); in the assay on RXF 393, 42 µM (inactive); in the assay with SK-MEL-28 it was > 100 µM (inactive); with SK-MEL-2, > 27.2 µM (inactive); with SNB-75 it was > 100 µM (inactive); with TK-10 it was > 100 µM (inactive). Further, the values for the GI50 in the assay with UACC-62 and with UO-31 were > 100 µM (inactive) and > 78.3 µM (inactive), respectively.

With `CN(C)CCn1c(=O)c2ccc(NCCCN(C)CCCNc3ccc4c(=O)n(CCN(C)C)c(=O)n5c6ccc([N+](=O)[O-])cc6c(=O)c3c45)c3c(=O)c4cc([N+](=O)[O-])ccc4n(c1=O)c23`, the GI50 in the assay with ACHN was < 0.01 µM (active); in the assay with BT-549 it was 0.0376 µM (active); with HCC 2998, < 0.01 µM (active); in the assay with HCT-15, under 0.015 µM; in the assay on HT-29 it was < 0.01 µM (active); in the assay with IGROV-1 it was < 0.01 µM (active). Also, the GI50 in the assay on LOX IMVI is < 0.01 µM (active); with MDA-N it was 0.0248 µM (active); in the assay with Malme-3M, 0.0594 µM (active); in the assay with NCI-H460, < 0.01 µM (active); in the assay with NCI-H522, < 0.01 µM (active); in the assay on NCI/ADR-RES, 0.0802 µM (active). The GI50 was < 0.01 µM (active) with OVCAR-8; 0.0122 µM (active) with RXF 393; 0.0664 µM (active) in the assay with SK-MEL-28; 0.0346 µM (active) in the assay on SK-MEL-2; < 0.01 µM (active) in the assay on SNB-75; < 0.0143 µM (active) with TK-10. In addition, the GI50 in the assay with UACC-62 was < 0.0246 µM (active); in the assay on UO-31 it was 0.0129 µM (active).

For `CCN(CC)CCSc1c(C(C)=O)c(=O)n(-c2ccccc2)c(=S)n1-c1ccccc1`, the GI50 with ACHN was 3.77 µM (inactive); in the assay on BT-549, 15.5 µM (inactive); in the assay with HCC 2998 it was 11.9 µM (inactive); in the assay with HCT-15, 2.8 µM; with HT-29 it was 16.7 µM (inactive); in the assay on IGROV-1, 13 µM (inactive). Further, the GI50 in the assay on LOX IMVI is 3.32 µM (inactive); in the assay with MDA-N it was 6.68 µM (inactive); with Malme-3M it was 6.1 µM (inactive); with NCI-H460, 21.1 µM (inactive); with NCI-H522, 2.21 µM (inactive); with NCI/ADR-RES, 22.2 µM (inactive). The GI50 in the assay on OVCAR-8 is 3.46 µM (inactive); with RXF 393, 1.9 µM (inactive); in the assay on SK-MEL-28 it was 10.5 µM (inactive); with SK-MEL-2, 15.5 µM (inactive); in the assay with SNB-75, 33.3 µM (inactive); in the assay with TK-10, 5.47 µM (inactive). Also, the GI50 in the assay with UACC-62 was 14.4 µM (inactive); with UO-31, 1.96 µM (inactive).

Turning to `N#CC1(C2SCC[S+]2[O-])C2=C(C(=O)c3ccccc3C2=O)N2CCCC21` (stereo not given), the GI50 in the assay on ACHN is 5.52 µM (inactive); in the assay on BT-549 it was 2.29 µM (inactive); in the assay on HCC 2998 it was 4.85 µM (inactive); in the assay on HCT-15 it was 2.21 µM; in the assay on HT-29 it was 3.59 µM (inactive); in the assay with IGROV-1, 1.75 µM (inactive). Further, the GI50 was 0.986 µM (active) in the assay with LOX IMVI; 0.605 µM (active) in the assay on MDA-N; 0.381 µM (active) in the assay on Malme-3M; 2.32 µM (inactive) in the assay with NCI-H460; 2.11 µM (inactive) in the assay with NCI-H522; 3.12 µM (inactive) with NCI/ADR-RES. The GI50 is 2.18 µM (inactive) in the assay on OVCAR-8; 0.998 µM (active) in the assay on RXF 393; 2.85 µM (inactive) in the assay on SK-MEL-28; 1.69 µM (inactive) in the assay on SK-MEL-2; 3.23 µM (inactive) in the assay with SNB-75; 8.77 µM (inactive) in the assay with TK-10. The GI50 was 2.85 µM (inactive) in the assay on UACC-62 and 4.68 µM (inactive) with UO-31.
